Biological target: T1, IKK-2 (Homo sapiens, UniProt O14920)
T1 construct: endogenous in cells; host or cells: primary keratinocytes from a healthy control and from Patient#1
T1 sequence (O14920 1-756): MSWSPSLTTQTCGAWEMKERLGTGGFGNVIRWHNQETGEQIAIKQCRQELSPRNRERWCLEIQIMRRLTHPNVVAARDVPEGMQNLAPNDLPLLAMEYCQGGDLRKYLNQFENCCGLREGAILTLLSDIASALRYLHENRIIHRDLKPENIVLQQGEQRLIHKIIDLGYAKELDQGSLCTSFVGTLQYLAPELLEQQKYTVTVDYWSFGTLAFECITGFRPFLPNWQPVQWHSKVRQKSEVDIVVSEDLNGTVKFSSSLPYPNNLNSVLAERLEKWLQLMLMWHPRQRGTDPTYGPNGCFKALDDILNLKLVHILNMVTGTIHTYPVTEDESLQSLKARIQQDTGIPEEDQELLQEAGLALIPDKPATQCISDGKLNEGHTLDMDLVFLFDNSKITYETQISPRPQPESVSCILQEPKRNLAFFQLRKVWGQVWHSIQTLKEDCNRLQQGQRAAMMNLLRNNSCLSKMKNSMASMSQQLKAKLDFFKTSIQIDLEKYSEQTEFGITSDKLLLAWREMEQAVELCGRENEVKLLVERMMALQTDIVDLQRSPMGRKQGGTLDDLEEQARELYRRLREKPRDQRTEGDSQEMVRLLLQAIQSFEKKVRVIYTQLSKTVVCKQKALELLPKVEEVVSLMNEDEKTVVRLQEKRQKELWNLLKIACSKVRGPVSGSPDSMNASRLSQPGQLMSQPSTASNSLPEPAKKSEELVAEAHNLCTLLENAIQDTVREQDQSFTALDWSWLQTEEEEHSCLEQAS
Assay: Inhibition of IKK-2 by ML120B in keratinocytes (IL8 mRNA by RT-qPCR)
Assay type: cell-based
Conditions: Patient#1 keratinocytes; ML120B 20 μM preincubated 1 h, then 10 ng/ml IL-1β, 24 h
Procedure: Total RNAs were isolated from cultured keratinocytes, HEK293T cells and frozen skin biopsies from the two patients and controls using the RNeasy Plus Minikit (Qiagen GmbH, Hilden, Germany), according to the manufacturer's instructions. RNA samples were reverse-transcribed into cDNA using the High Capacity cDNA Reverse Transcriptase Kit (Applied Biosystems, Foster City, Calif., USA). Real-time PCR was carried out using the Fast SYBR Green PCR Master Mix (PE Applied Biosystems) on an ABI prism 7000 (PE Applied Biosystems). RT-qPCR primers were designed using the sequences available in Ensembl and spanned an intron-exon boundary. The amounts of the various mRNAs were normalized against the amount of beta actin RNA measured by RT-qPCR in each sample. The results were analyzed with DataAssist® (version 3.01, Applied Biosystems), which uses the comparative Ct (ddCt) method.
Keratinocytes from a healthy control and from Patient#1 were seeded into 12-well plates (100 000 cells/well). 24 hours later, keratinocytes were preincubated with ML120B 20 μM at 37° C. for 1 h and then stimulated with 10 ng/ml IL-1β. 24 hours after the stimulation, the cells were pelleted for RNA extraction. ML120B was sent as a gift by Emmanuel Laplantine (Institut Pasteur, Paris, France).

production of IL8: restored the normal production of IL8
SMILES: COc1c(Cl)cc2c([nH]c3cnccc32)c1NC(=O)c1cccnc1C [ML120B]

From patent publication US20190125826A1, “METHODS AND PHARMACEUTICAL COMPOSITION FOR THE TREATMENT OF INFLAMMATORY SKIN DISEASES ASSOCIATED WITH DESMOGLEIN-1 DEFICIENCY” (INSERM (INSTITUT NATIONAL DE LA SANTÉ ET DE LA MÉDICALE), priority 2016, published 2019)
